From publication PMC5129993, “Everolimus induces Met inactivation by disrupting the FKBP12/Met complex” (Oncotarget, 2016)

What was measured:
[1] = tested on: phospho-Met; assay: Western blot analysis of Met phosphorylation in human cancer cell lines; type: cell-based; conditions: 24 hours
Method: (§1) Total protein extracts obtained from cell cultures or tumor specimens were resolved by 4-15% SDS-PAGE and probed with anti-human, polyclonal pMet Y1349, polyclonal Met, monoclonal pp70S6K T412 and p70S6K (Merck-Millipore Darmstadt, Germany), monoclonal actin (Sigma-Aldrich, Milan, Italy), monoclonal FKBP12, polyclonal mTOR, Raptor, and Rictor. Co-immunoprecipitation analyses were performed with anti-Met; membranes were blotted with anti-FKBP12. The total lysate from 786-O, 786-O EveR and HCT116 cells served as positive control. Immunoreactive proteins were visualized by enhanced chemiluminescence (Pierce, Rockford, IL, USA). Densitometry was performed with Image J software (NIH, Bethesda, MD, USA).

[2] = tested on: phospho-p70S6K; assay: Western blot analysis of p70S6K phosphorylation in human cancer cell lines; type: cell-based; conditions: 24 hours
Method: as §1

[3] = tested on: T47D cells with Met M1268T mutant; assay: Cell density assay (MTT), Met-transduced T47D; type: cell-based, human; conditions: T47D Met M1268T; PHA665752 1 μM + everolimus 1 μM, 72 hours; P <0.01
Method: (§2) The percentage of cell density was determined using the 3-(4,5-dimethylthiazol-2-yl)-2,5-diphenyltetrazolium bromide (MTT) assay according to the manufacturer's instructions (Sigma-Aldrich, Milan, Italy). […]
(§3) (iii) an active conformation. The resulting selected Met [Follenzi A, Nat Genet. 2000]. […]
(§4) We used the pRRL.sin.PPT.hCMV.GFP.
(§5) Cα] at the 80 loop level (frame 13). To generate the Met/pre vector as control. […]

[4] = tested on: T47D cells with Met Y1235D mutant; assay: Cell density assay (MTT), Met-transduced T47D; type: cell-based, human; conditions: T47D Met Y1235D; PHA665752 1 μM + everolimus 1 μM, 72 hours; P <0.01
Method: as §2, §3, §4, §5

[5] = tested on: T47D cells with wt Met; assay: Cell density assay (MTT), Met-transduced T47D; type: cell-based, human; conditions: T47D wt Met; PHA665752 1 μM + everolimus 1 μM, 72 hours; P <0.01
Method: as §2, §3, §4, §5

[6] = tested on: everolimus-resistant HCT116 cells; assay: Subcutaneous murine colorectal cancer model (HCT116 xenograft)
Excerpt: We subcutaneously xenografted everolimus-resistant HCT116 cells into 50 four- to six-week-old female BALB/c athymic nu+/nu+ (nude) mice (Charles River Laboratories, Milan, Italy). Forty animals were used to carry out the subcutaneous colorectal cancer model experiment; when tumors reached a mean volume of 1 cm^3, 10 animals were euthanized, tumors were divided into 2-mm-sized pieces and microsurgically implanted in the cecum of 40 Balb/C nude mice for the orthotopic experiment. See Supplementary Methods for further details about the surgical procedure and the treatment schedule. […]

[7] = tested on: everolimus-resistant HCT116 cells; assay: Orthotopic murine colorectal cancer model (HCT116 in cecum); type: in vivo, Balb/C nude mice; conditions: orthotopic HCT116, four weeks after tumor implantation
Method: The cecum was then placed
Seven days after implantation, […]
p/6 x larger diameter x (smaller diameter)2. […]
diameter was assessed with ultrasonography (VEVO,
Committee. Primary tumors in the cecum were excised
The final tumor was measured with a caliper surgical site was isolated in a sterile fashion.
J Am Chem Soc. 2003; 125: 8827-8837.
Uncoupling signal transducers from oncogenic MET 6.
2. […] 2000; 25: 217-222.
Unbinding pathways from the glucocorticoid receptor shed 7. Michnick SW, Rosen MK, Wandless TJ, Karplus M, […]
Solution structure of FKBP, a rotamase a naturally occurring, clinically relevant mutant receptor. J enzyme and receptor for FK506 and rapamycin. Science.
3. […] Mustafi SM, LeMaster DM, Hernández G. Differential […]
cytoreductive antitumor activity in vivo.
HADDOCK2.0 on the CAPRI targets. Proteins.
726-733. JR, Soisson SM, Lumb KJ. Structural basis for selective

[8] = 786-O and MDA-MB-231 cells, 0.5 μM
[9] = 786-O EveR and HCT116 cells, 1 μM (siRNA 50 nM)

## CN(C)C1CCN(C(=O)c2ccc(NC(=O)Nc3ccc(-c4nc(N5CCOCC5)nc(N5CCOCC5)n4)cc3)cc2)CC1 [PKI-587]
[1]; [8]
  Met phosphorylation: neither PKI-587 nor OSI-027 inhibited Met phosphorylation
[2]; [8]
  phospho-p70S6K: reduced phospho-p70S6K

## Cc1[nH]c(/C=C2\C(=O)Nc3ccc(S(=O)(=O)Cc4c(Cl)cccc4Cl)cc32)c(C)c1C(=O)N1CCC[C@@H]1CN1CCCC1 [PHA665752]
[3]
  sensitivity to everolimus (cell density): significantly restored sensitivity to everolimus
[4]
  sensitivity to everolimus (cell density): significantly restored sensitivity to everolimus
[5]
  sensitivity to everolimus (cell density): significantly restored sensitivity to everolimus
[6]; day 42, 6 weeks after cell injection, everolimus 5 mg/kg per os, PHA665752 20 mg/kg i.v., five times a week for 2 weeks
  tumor growth inhibition: 85%
[6]; end of the experiment, same regimen
  tumor growth inhibition: 30%
[6]; subcutaneous HCT116 xenograft, 10 mice/group
  Median survival: 57 days
[7]
  tumor volume: greatly reduced
  tumor weight: greatly reduced
[1]; [9]
  phosphorylation of Met: reduced the phosphorylation of Met and p70S6K
[2]; [9]
  phosphorylation of p70S6K: reduced the phosphorylation of Met and p70S6K
